Data published in patent EP0098942A1, “Optically active imidazolylpropanol compounds, and their production and use” (SUMITOMO CHEMICAL COMPANY, LIMITED, priority 1982, dated 1984).

Experiments:
[1] = tested on: Candida albicans, strain KB-8 (clinical isolate); assay: In vitro inhibition of pseudomycelium formation; type: cell-based; details: effective dose to inhibit formation of pseudomycelium, light microscopy at 72 hours after inoculation, Eagle's MEM, 37°C, 5 % CO2, read-out: Minimum effective dose
Protocol: Candida albicans, strain KB-8 (clinical isolate), was maintained on Sabouraud's agar slants at room temperature. Yeast cells were grown at 37°C on Sabouraud's agar and a loopful from a 24 hours' slant was inoculated in 4.5 ml of Sabouraud's broth and cultured at 37°C for 24 hours. A 0.5 ml aliquot of this culture was inoculated in 100 ml of a casein hydrolysate yeast-extract glucose medium (CYG medium). Cells were grown at 37°C aerobically in a reciprocating shaker for 48 hours. From this culture, a 0.2 ml aliquot was again inoculated in 100 ml CYG medium and grown for another 24 hours at 37°C while shaking.
The pseudomycelium growth-promoting medium consisted of Eagle's minimal essential medium supplemented with non-essential amino acids and sodium bicarbonate (2 g/liter). Yeast cells were seeded at densities of 1.0 x 10^5/ml in sterile culture tubes (010 x 100 mm) containing 3 ml of medium. Cells were grown in a humidified atmosphere of 5 % C02 in air at 37°C.
The effects of the test compound were evaluated . under the following conditions: the cultures were exposed to the test compound in doses ranging from […] to 10^-4 M; the solvent for the test compound was added as an aqueous solution. Pseudomycelium development was observed by light microscopy at 72 hours after inoculation.

Candida albicans KB-8 = assay: Number of viable cells in the kidney of Candida-infected mice; type: in vivo, DDY strain male mice; details: per os, total dose 20 mg/kg; for Medicated group, number of cells in kidney (cell/g): given immediately and 5 hours after infection, kidneys taken 24 hours after infection; for Medicated/ Non-medicated (logarithmic value): kidney cell count 24 hours after infection, non-medicated group 1.45x10^5 cell/g
Protocol: Candida albicans KB-8 was cultured on a Sabouraud's agar plate admixed with blood in a concentration of 5 % (v/v) - at 30°C for 4 days, suspended in physiologically saline solution and diluted to approximately 10,000,000 cells/ml. DDY strain male mice were […] via the tail vein with 0.2 ml of this suspension.
The animals were orally medicated with the test compound in the form of 0,5 % (w/v) methylcellulose supension at a total dose of 20 mg per kg of the body weight immediately and 5 hours after the infection.
After 24 hours from the infection, the animals were sacrificed, and the kidneys were taken out. After the kidneys were homogenized in 4 fold sterilized physiologically saline solution, a certain amount of the suspension was scattered on a Sabouraud's agar plate and cultured at 37°C for 48 hours. Then, the number of colonies was counted, the number of cells per one gram of the kidney was calculated, and the difference between the calculated numbers in the medicated group and in the non- medicated group was expresed by a logarithmic value.

Row | SMILES | minimal effective concentration [1] [µM] | Medicated group, number of cells in kidney (cell/g) (Candida albicans KB-8) | Medicated/ Non-medicated (logarithmic value) (Candida albicans KB-8)
1 | CCCCSCC(O)(Cn1ccnc1)c1ccc(Cl)cc1Cl (racemic) [A] | 0.1 | 1.86x10^3 cell/g | -1.89
2 | CCCCSC[C@@](O)(Cn1ccnc1)c1ccc(Cl)cc1Cl [B, (S)-3-(n-butylthio)-2-(2,4-dichlorophenyl)-1-(imidazol-1-yl)-2-propanol] | 1 | 1.82x10^4 cell/g | -0.90
3 | CCCCSC[C@](O)(Cn1ccnc1)c1ccc(Cl)cc1Cl [I (n=3), (R)-3-(n-butylthio)-2-(2,4-dichlorophenyl)-1-(imidazol-1-yl)-2-propanol] | 0.001 | 1.41x10^3 cell/g | -2.01
